From patent publication US10960013B2, “J-series prostaglandin-ethanolamides as novel therapeutics for skin and/or oral disorders” (East Carolina University, priority 2016, dated 2021) come the findings set out here.

“Also recorded” adds a separate entry of the source.

Test [1] relates to tumorigenic (JWF2) and non-tumorigenic (HaCaT) cells. Briefly: Cell viability (MTS) of tumorigenic and non-tumorigenic keratinocytes treated with 15dPMJ2. The format is cell-based. To be noted: 12 hours. As to the method:
Tumorigenic and non-tumorigenic keratinocytes were treated with different concentrations of 15dPMJ2, vehicle, or were untreated for 12 hours. Cell viability was detected by conducting MTS experiments. Data represent the mean±SEM of three independent experiments and are expressed as the percent of the untreated cells. *P<0.01.
(§1) To assess the in vivo antineoplastic action of 15dPMJ2, the subcutaneous mouse tumor model was utilized. Melanoma cells were subcutaneously implanted in the flank region of C57BL/6 mice and treated with 0.5 mg/kg 15dPMJ2, vehicle [0.1% DMSO in phosphate buffered saline (PBS)], or were untreated. […] To determine if 15dPMJ2 induced ER stress the expression of CHOP10 was detected in the tumor sections.

Test [2] deals with Melanoma cells subcutaneously implanted in the flank region of C57BL/6 mice. Briefly: Subcutaneous mouse tumor model, tumor weight. The test is classed as in vivo. The note with it: 0.5 mg/kg for 5 days; compared to vehicle and untreated animals; P<0.01. As to the method:
Tumors grown in C57BL/6 mice were either untreated (UT), vehicle treated (VEH), or treated with 0.5 mg/kg 15dPMJ2 for 5 days. Tumor weights were determined. #P<0.01 compared to untreated; *P<0.01 compared to vehicle treated (one-way ANOVA with Tukey's post-hoc test).
as §1

Test [3] concerns CHOP10. Briefly: CHOP10 expression (ER stress) in excised tumor sections. The test is classed as in vivo, C57BL/6 mice. To be noted: 0.5 mg/kg for 5 days. As to the method:
as §1

As to `CCCCC/C=C/C=C1/C(=O)C=CC1C/C=C/CCCC(=O)NCCO` (stereo not shown) [15dPMJ2, 15-deoxy Δ^12,14-prostagladin J2-ethanolamide], in test [1] (at 5 μM, JWF2 vs HaCaT, MTS cell viability), the “toxicity towards tumorigenic keratinocytes relative to non-tumorigenic keratinocytes” value is reported as 4 fold. Moreover, the “selective toxicity (cell viability, tumorigenic vs non-tumorigenic keratinocytes)” value in test [1] (different concentrations, MTS) was “selectively toxic”. In addition, the “tumor weight / solid tumor growth” value in test [2] was “statistically significant reduction in tumor weight; also recorded: inhibits solid tumor growth”. Also, the “CHOP10 expression in the tumors (ER stress)” value in test [3] is “markedly increased CHOP10 expression; also recorded: increases ER stress”.
